According to publication PMC10162847 (Phytomedicine, 2023):
Where two headings read alike, the source gives them in different places.

Columns and labels:
[1] = KM mice, oral 6000 mg/kg (2000 mg/kg 3 times within 24 h), 7 days observation
[2] = test system: carrageenan-induced paw edema; assay: Carrageenan-induced paw edema in rats; type: in vivo, Sprague-Dawley (SD) rats; details: oral 50, 100, 200 mg/kg for 7 days, 2nd-5th h after carrageenan injection
[3] = test system: SARS-CoV-2 pseudo typed lentivirus; type: cell-based; details: fluorescence signal, 0-300 μM, pre-incubation 0.5 h
[4] = test system: RIPK1/NF-κB pathway in THP1 macrophages; type: cell-based
[5] = target: interactions between the RBD^WT and ACE2 protein (Severe acute respiratory syndrome coronavirus 2, UniProt P0DTC2); type: binding; details: ELISA
[6] = test system: dimethylbenzene-induced auricular edema
DNFB-induced ear edema = details: DTH model
HCoV-229E = assay: microbe, parasite or virus in culture; type: cell-based; details: Human coronavirus 229E
Vero E6 cells = details: MTT, 72 h
[7] = test system: LPS-induced acute lung injury; type: in vivo, C57BL/6 mice; details: ALI mice
SARS-CoV-2 = type: cell-based; details: VeroE6 cells, concentration-dependent
in vitro = details: human
[8] = western blotting, THP1 macrophages
[9] = Huh-7, read-out: EC50, HCoV-229E replication, CPE assay
[10] = Huh-7, read-out: EC50, HCoV-229E replication, MTT assay
[11] = oral pre-treatment 200, 300, 400 mg/kg

Row | SMILES | acute toxicity, exposure-related clinical symptoms [1] | inflammatory activity (paw edema) [2] | binding of the SARS-CoV-2 pseudo typed lentivirus to HEK293-hACE2-mCherry cells [3] | RIPK1 expression levels and mRNA levels of NF-κBp65, RIPK3, RIPK1, MLKL, FADD, Caspase8 and JNK ([4]; LPS-induced THP1 macrophages, 100, 200, 400 μM) | RIPK1, phosphorylation of NF-κBp65 and RIPK1 induced by LPS stimulation [4, 8] | abundance of the NF-κBp65 protein among the total proteins [4, 8] | interactions between the RBD^WT and ACE2 protein [5] | immune organ toxicity ([6]; dimethylbenzene-induced auricular edema model) | edema formation in the dermis ([6]; dimethylbenzene-induced auricular edema, 7 days pre-treatment) | organ damage (DNFB-induced ear edema; BALB/c mice) | mouse ear thickness (DNFB-induced ear edema; oral 50, 100, 200 mg/kg, 20, 40, 60 and 80 min after modeling) | EC50 (HCoV-229E; [9]) [µM] | EC50 (HCoV-229E; [10]) [µM] | CC50 (Vero E6 cells) [µM] | mRNA levels of TNFα, IL-6 and NF-κBp65 in the lung tissues [7] | alveolar inflammation [7, 11] | lung edema [7, 11] | SARS-CoV-2 proliferation (SARS-CoV-2) | CC50 (in vitro) [µM]
1 | O=c1c(O)c(-c2cc(O)c(O)c(O)c2)oc2cc(O)cc(O)c12 [myricetin, 3,5,7-trihydroxy-2-(3,4,5-tri hydroxyphenyl)-4-benzopyrone] | no exposure-related clinical signs | significantly reduce | repressed | significantly reduced | significantly inhibited | unaltered | significantly inhibited | without immune organ toxicity | significantly suppressed | without any organ damage | decreased | 53.5 | 61.5 | 248 | significantly downregulated | decreased the alveolar inflammation | alleviated lung edema |  | 
2 | CCC(CC)COC(=O)[C@H](C)N[P@](=O)(OC[C@H]1O[C@@](C#N)(c2ccc3c(N)ncnn23)[C@H](O)[C@@H]1O)Oc1ccccc1 [remdesivir, reference compound] |  |  |  |  |  |  |  |  |  |  |  | 0.0562 | 0.0583 |  |  |  |  | inhibited | 108
